Data published in patent US8202874B2, “Substituted N-oxide pyrazine derivatives” (Mitsubishi Tanabe Pharma Corporation, priority 2008, dated 2012).

Biological target: GSK3β (Homo sapiens, UniProt P49841)
Assay: Inhibitory activity against GSK3β (33P-ATP phosphorylation of prephosphorylated GS1 peptide)
Format: biochemical
Settings: protocol 3: 7.5 μM GS1 peptide, 10 μM ATP, 50 mM Hepes pH 7.2, one hour at room temperature
Description: Four different protocols can be used.
In a first protocol: 7.5 μM of prephosphorylated GS1 peptide and 10 μM ATP (containing 300,000 cpm of ^33P-ATP) were incubated in 25 mM Tris-HCl, pH 7.5, 0.6 mM DTT, 6 mM MgCl2, 0.6 mM EGTA, 0.05 mg/ml BSA buffer for 1 hour at room temperature in the presence of GSK3beta (total reaction volume: 100 microliters).
In a second protocol: 4.1 μM of prephosphorylated GS1 peptide and 42 μM ATP (containing 260,000 cpm ^33P-ATP) were incubated in 80 mM Mes-NaOH, pH 6.5, 1 mM Mg acetate, 0.5 mM EGTA, 5 mM 2-mercaptoethanol, 0.02% Tween 20, 10% glycerol buffer for 2 hours at room temperature in the presence of GSK3beta.
In a third protocol: 7.5 μM of prephosphorylated GS1 peptide and 10 μM ATP (containing 300,000 cpm of ^33P-ATP) were incubated in 50 mM Hepes, pH 7.2, 1 mM DTT, 1 mM MgCl2, 1 mM EGTA, 0.01% Tween 20 buffer for one hour at room temperature in the presence of GSK3beta (total reaction volume: 100 microliters). […]
The reaction was stopped with 100 microliters of a solution made of 25 g polyphosphoric acid (85% P2O5), 126 ml 85% H3PO4, H2O to 500 ml and then diluted to 1:100 before use. […] Incorporated ^33P radioactivity was determined by liquid scintillation spectrometry. […]

GSK3β, sequence (P49841 whole entry): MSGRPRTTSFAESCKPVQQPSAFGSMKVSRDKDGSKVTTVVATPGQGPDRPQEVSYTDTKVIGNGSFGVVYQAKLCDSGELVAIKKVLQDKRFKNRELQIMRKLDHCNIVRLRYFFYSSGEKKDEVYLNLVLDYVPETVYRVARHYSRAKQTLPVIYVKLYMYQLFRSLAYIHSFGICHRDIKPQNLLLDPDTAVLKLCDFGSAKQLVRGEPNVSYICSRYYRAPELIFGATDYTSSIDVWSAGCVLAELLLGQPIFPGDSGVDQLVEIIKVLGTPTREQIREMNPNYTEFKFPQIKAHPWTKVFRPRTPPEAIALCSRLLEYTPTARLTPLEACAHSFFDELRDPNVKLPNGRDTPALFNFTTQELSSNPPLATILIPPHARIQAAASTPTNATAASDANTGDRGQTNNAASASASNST

SMILES: [O-][n+]1cc(NCC(O)c2ccccc2)nc(-c2ccncc2)c1 (racemic) [compound 2, (+/−)2-[(4-oxido-6-pyridin-4-ylpyrazin-2-yl)amino]-1-phenylethanol]
- IC50: 506 nM
